Like-named read-outs stand apart in the source and are kept apart here.

Series [1] relates to MM.1S cells. In words: cells. The series is classed as cell-based. As to conditions: Homo sapiens, MM1.S, read-out: percentage of nonviable cells by trypan blue exclusion. The procedure: Assessment of HNK-induced cytotoxicity against patient MM cells: Cytotoxicity of HNK against fresh MM cells was determined as previously determined, see, for example, Mitsiades et al Cancer Cell. 2004; 5:221-230. Fresh MNCs separated from bone marrow samples derived from patients with MM were incubated with PE-conjugated anti-CD138 antibody and/or FITC-conjugated anti-CD38 antibody (BD Biosciences, San Diego, Calif.) for 30 minutes on ice and washed, followed by analysis using EPICS XL flow cytometer (Beckman Coulter, Hialeah, Fla.). A CD38^high fraction enriched for MM cells was determined in side and forward scatter panel in each case. The expression of CD138 on gated cells was also evaluated. After HNK-treatment for 48 h, cells were harvested and percentage of CD38^high cells with or without HNK-treatment was evaluated. […] Cells were stained with propidium iodide (PI; 50 μg/mL; Sigma, St Louis, Mo.), and cell cycle profile was determined by using the program M software on an EPICS XL flow cytometer (Beckman Coulter, Hialeah, Fla.). […] Fluorescence intensity of TUNEL and APO 2.7 staining was determined using on EPICS XL flow cytometer. Cytotoxicity was determined by trypan blue exclusion assay. […] Cell growth and induction of apoptosis were determined both by colorimetric assay and now cytometric detection of APO2.7 after 48 h treatment. […] DNA synthesis was measured by [^3H]-thymidine uptake. […]

Series [2] has as its system HUVEC. In words: direct toxicity against HUVEC (colorimetric assay). The series is classed as cell-based, human. The following applies: 8 ug/ml.
The test system of series [3] is MCF-7 cells. Put plainly: Apoptosis analysis (annexin V and PI). The following applies: MCF-7, 60 μM, 24 hours (control 1%±0.5%). The series is classed as cell-based. The procedure: Apoptosis analysis: 5×10^6 cells were placed in the appropriate culture media containing 10% FCS, and treated with either control vehicle or various concentrations of HNK, as indicated for 24 h. Following treatment, cells were harvested, and stained with PI and Annexin V, using the Annexin V-PE Apoptosis Detection Kit I (BD Pharmingen, San Diego, Calif.) according to the manufacturer protocol. Flow cytometry was performed at the Flow Cytometry Core facility of Cedars-Sinai Medical Center, using FACScan (Becton Dickinson, Franklin Lakes, N.J.). For studies using z-VAD-fmk to inhibit caspase activity, 5×10^6 cells were incubated with 50 μM z-VAD-fmk for 60 minutes prior to addition of HNK.
HNK induces apoptosis in breast cancer cell lines. […] The ability of HNK to induce apoptosis and cell death in breast cancer cell lines was investigated. MCF-7 cells were treated with HNK (60 μM for six or 24 hours) and apoptosis and cell death were assessed using annexin V and PI staining (FIG. 5 A). […] Upregulation of BAX was also noticed, (85% increase at 40 μM compared to control, as analyzed by densitometry) but no significant changes in BCL-2 or BAD levels were observed. Only partial inhibition of apoptosis was observed following pretreatment with z-VAD-fmk.

In series [4] the test system is splenic B cells. Put plainly: CD40 mediated cytokine production of splenic B cells from treated mice. In kind it is in vivo, C57BL/6 or mCD40-LMP1 Tg mice. The following applies: honokiol 3 mg/day, day 21-70. The procedure:
CD40 mediated IL-6 and TNF-alpha production was also evaluated. […] IL-6 in culture supernatants was assessed by ELISA. Mice were assessed 70 days post-immunization with CII/CF or CFA only (or naïve). Some mice received honokiol (3 mg/day) from day 21-70 post-immunization. […] TNF-a in culture supermatants was assessed by ELISA. Mice were assessed 70 days post-immunization with CII/CF or CFA only (or naïve). Some mice received honokiol (3 mg/day) from day 21-70 post-immunization. […] In LMP1 Tg mice, even negative control mice have lowered IL-6 and TNF-alpha responses. However, IL-10 was not affected, as determined by analyzing the role of Honokiol treatment on B cell IL-10 production. […] IL-10 in culture supermatants was assessed by ELISA. Mice were assessed 70 days post-immunization with CII/CF or CFA only (or naïve). Some mice received honokiol (3 mg/day) from day 21-70 post-immunization.

In the case of `C=CCc1ccc(O)c(-c2ccc(O)c(CC=C)c2)c1` [HNK, Honokiol], in series [1] (24 h), the cytotoxicity at 10 µg/mL amounted to 30.7 ± 5.5%. Further, the cytotoxicity at 10 µg/mL in series [1] stood at 27.6 ± 6.4%. For the same compound, in series [2], the “viability of HUVEC cells” value was “did not affect the viability of HUVEC cells”. The “annexin V-positive, PI-negative cells” value in series [3] is 16%±3%. In series [4], the “CD40 mediated IL-6 production” value is reported as “CD40 mediated IL-6 production is decreased” and the “CD40 mediated TNF-alpha production” value was “CD40 mediated TNF-alpha production is decreased”.

(Values after US20080300298A1, “Honokiol Derivates For the Treatment of Proliferative Disorders” (priority 2005, published 2008).)
